In one test the target is T1, PPARγ-RXRα heterodimer (Homo sapiens, UniProt P37231).
T1 construct: expressed in transfected cells; host or cells: CHO-K1
T1 sequence (P37231 1-477 isoform P37231-2): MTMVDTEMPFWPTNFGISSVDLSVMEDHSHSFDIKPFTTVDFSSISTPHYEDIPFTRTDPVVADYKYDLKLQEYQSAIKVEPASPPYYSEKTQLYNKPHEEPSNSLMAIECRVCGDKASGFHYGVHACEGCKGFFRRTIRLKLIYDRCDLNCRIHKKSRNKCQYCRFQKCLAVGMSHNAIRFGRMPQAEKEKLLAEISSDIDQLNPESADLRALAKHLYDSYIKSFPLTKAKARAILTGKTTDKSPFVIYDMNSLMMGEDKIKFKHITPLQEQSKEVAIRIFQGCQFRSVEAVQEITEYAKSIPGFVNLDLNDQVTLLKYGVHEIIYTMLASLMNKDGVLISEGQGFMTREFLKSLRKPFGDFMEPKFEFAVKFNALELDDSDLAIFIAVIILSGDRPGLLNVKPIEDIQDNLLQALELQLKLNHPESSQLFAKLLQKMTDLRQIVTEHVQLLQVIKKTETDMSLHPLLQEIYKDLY
T1 sequence (P19793 1-462 partner): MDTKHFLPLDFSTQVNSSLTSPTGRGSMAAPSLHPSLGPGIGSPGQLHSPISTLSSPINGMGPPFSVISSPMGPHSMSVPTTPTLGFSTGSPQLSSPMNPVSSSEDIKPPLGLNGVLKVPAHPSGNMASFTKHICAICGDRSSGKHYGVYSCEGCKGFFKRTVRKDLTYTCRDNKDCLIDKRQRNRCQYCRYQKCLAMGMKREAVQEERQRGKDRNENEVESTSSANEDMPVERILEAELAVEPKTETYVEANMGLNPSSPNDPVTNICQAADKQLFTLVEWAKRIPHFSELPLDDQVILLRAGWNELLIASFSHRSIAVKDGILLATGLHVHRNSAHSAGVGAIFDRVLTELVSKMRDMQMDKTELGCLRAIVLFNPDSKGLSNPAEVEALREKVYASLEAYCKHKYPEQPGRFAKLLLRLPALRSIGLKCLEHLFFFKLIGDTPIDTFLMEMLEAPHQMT
The test can be described thus: PPARγ-RXRα heterodimer ligand activity, luciferase reporter in PPARγ:RXRα:4ERPP/CHO-K1 cells (Test Example 3). It counts as cell-based. The following applies: 18-48 hours, concentration for 50% of the maximum fold induction. Summed up:
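Stable CHO-K1 line co-expressing hPPARγ/RXR with 4ERPP-TK luciferase reporter, 2×10^4 cells per well, treated 18-48 h at 37° C. in HAM F12 with 0.1% fatty acid-free BSA. Luciferase fold induction versus untreated taken as 1; EC50 is concentration giving 50% of maximal fold induction.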
(Reporter assays use an easily measured gene product as a stand-in for the process of interest.)

For another test, the system named is KKAY mice. The test can be described thus: Hypoglycemic and hypolipidemic actions in mice (Test Example 1). Type of test: in vivo. The settings on record: Mus musculus, po, 96 h, 0.005% in powdery diet, four days, non-treated group taken as 100%. Summed up: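 KKAY mice (9 to 12 weeks old, 5 per group) were fed diet containing 0.005% test compound ad libitum for four days. Plasma glucose and triglycerides from orbital venous blood were measured enzymatically, reported as % decrease relative to untreated group (100%).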

Where [1] appears, read: rate of decrease in blood glucose level, read-out: Hypoglycemic action (%).
The mark [2] stands for this setting: rate of decrease in blood triglyceride level, read-out: Hypolipidemic action (%).

Like-named read-outs stand apart in the source and are kept apart here.

In general, EC50 refers to the midpoint of the concentration-response curve. Read a high EC50 as lower potency in that assay. Turning to `CCCc1nn(-c2ccc(C(F)(F)F)cn2)cc1CCCOc1c(C)cccc1CC(=O)O` [Example 319, [3-methyl-2-(3-{3-propyl-1-[5-(trifluoromethyl)-2-pyridinyl]-1H-pyrazol-4-yl}propoxy)phenyl]acetic acid], the response on PPARγ-RXRα heterodimer was half-maximal at 26 nM (EC50).

For the molecule `COc1cccc(CC(=O)O)c1OCCCc1cn(-c2ccc(C(F)(F)F)cn2)nc1C(C)C` [Example 181, [2-(3-{3-isopropyl-1-[5-(trifluoromethyl)-2-pyridyl]-1H-pyrazol-4-yl}propoxy)-3-methoxyphenyl]acetic acid], the inhibition in vivo at 0.005 % in diet in the test on KKAY mice (setting [1]) and in the test on KKAY mice (setting [2]) was 49% in each case. This molecule yielded an EC50 on PPARγ-RXRα heterodimer of 75 nM.

Consider `CCOc1nn(-c2ccc(C(F)(F)F)cn2)cc1CCCOc1cccc(CC(=O)O)c1` [Example 30, [3-(3-{3-ethoxy-1-[5-(trifluoromethyl)-2-pyridyl]-1H-pyrazol-4-yl}propoxy)phenyl]acetic acid], for which the inhibition in vivo at 0.005 % in diet was found to be 35% with KKAY mice (setting [1]) and 58% in the test with KKAY mice (setting [2]). At PPARγ-RXRα heterodimer, this molecule came in with an EC50 of 210 nM.

As to `CCOc1nn(-c2ccc(C(F)(F)F)cn2)cc1CCCCOc1ccccc1CC(=O)O` [Example 137, [2-(4-{3-ethoxy-1-[5-(trifluoromethyl)-2-pyridyl]-1H-pyrazol-4-yl}butoxy)phenyl]acetic acid], a half-maximal response on PPARγ-RXRα heterodimer (EC50) required 35 nM.

Consider `CCCc1nn(-c2ccc(C(F)(F)F)cn2)cc1CCCOc1ccc(CCC(=O)O)c(OCC)c1` [Example 98, 3-[2-ethoxy-4-(3-{3-propyl-1-[5-(trifluoromethyl)-2-pyridinyl]-1H-pyrazol-4-yl}propoxy)phenyl]propanoic acid], for which, on PPARγ-RXRα heterodimer, the response was half-maximal at 110 nM (EC50).

With `Cc1cccc(CC(=O)O)c1OCCCc1cn(-c2ccc(C(F)(F)F)nn2)nc1C(C)(C)C` [Example 367, [2-(3-{3-tert-butyl-1-[6-(trifluoromethyl)pyridazin-3-yl]-1H-pyrazol-4-yl}propoxy)-3-methylphenyl]acetic acid], the 50% effective concentration (EC50) on PPARγ-RXRα heterodimer is 41 nM.

With `CCOc1nn(-c2ccc(C(F)(F)F)cn2)cc1CCCCOc1cc(CCC(=O)O)n(-c2ccccc2)n1` [Example 104, 3-[3-(4-{3-ethoxy-1-[5-(trifluoromethyl)-2-pyridinyl]-1H-pyrazol-4-yl}butoxy)-1-phenyl-1H-pyrazol-5-yl]propanoic acid], the 50% effective concentration (EC50) at PPARγ-RXRα heterodimer worked out at 34 nM.

The molecule `Cc1cccc(CC(=O)O)c1OCCCc1cn(-c2ccc(C(F)(F)F)cn2)nc1C1CCCCC1` [Example 316, [2-(3-{3-cyclohexyl-1-[5-(trifluoromethyl)-2-pyridinyl]-1H-pyrazol-4-yl}propoxy)-3-methylphenyl]acetic acid] registered an EC50 on PPARγ-RXRα heterodimer of 3.8 nM.

`CCCc1nn(-c2ccc(C(F)(F)F)cn2)cc1CCCOc1c(Br)cccc1CC(=O)O` [Example 237, [3-bromo-2-(3-{3-propyl-1-[5-(trifluoromethyl)-2-pyridinyl]-1H-pyrazol-4-yl}propoxy)phenyl]acetic acid] gave an EC50 at PPARγ-RXRα heterodimer of 17 nM.

Consider `CCOc1nn(-c2ccc(C(F)(F)F)cn2)cc1CCCOc1ccccc1CC(=O)O` [Example 31, (2-(3-{3-ethoxy-1-[5-(trifluoromethyl)-2-pyridyl]-1H-pyrazol-4-yl}propoxy)phenyl]acetic acid], for which the inhibition in vivo at 0.005 % in diet in the test on KKAY mice (setting [1]) stood at 50%; in the test on KKAY mice (setting [2]), 69%. The molecule further had a concentration for a half-maximal effect (EC50) on PPARγ-RXRα heterodimer of 35 nM.

As to `CCC(CC)c1nn(-c2ccc(Cl)cn2)cc1CCCOc1c(CC(=O)O)cccc1OC` [Example 223, (2-{3-[1-(5-chloro-2-pyridyl)-3-(1-ethylpropyl)-1H-pyrazol-4-yl]propoxy}-3-methoxyphenyl)acetic acid], the values for the inhibition in vivo at 0.005 % in diet in the test on KKAY mice (setting [1]) and with KKAY mice (setting [2]) were 38% and 55%, respectively. The molecule further displayed a 50% effective concentration (EC50) on PPARγ-RXRα heterodimer of 24 nM.

On to `CCc1cccc(CC(=O)O)c1OCCCc1cn(-c2ccc(C(F)(F)F)nn2)nc1C(C)C` [Example 245, [3-ethyl-2-(3-{3-isopropyl-1-[6-(trifluoromethyl)pyridazin-3-yl]-1H-pyrazol-4-yl}propoxy)phenyl]acetic acid], for which the inhibition in vivo at 0.005 % in diet with KKAY mice (setting [1]) was 42%; with KKAY mice (setting [2]), 55%. Besides, the EC50 at PPARγ-RXRα heterodimer was found to be 19 nM.

On to `COc1cccc(CC(=O)O)c1OCCCc1cn(-c2ccc(C(F)(F)F)nn2)nc1C(C)C` [Example 274, [2-(3-{3-isopropyl-1-[6-(trifluoromethyl)pyridazin-3-yl]-1H-pyrazol-4-yl}propoxy)-3-methoxyphenyl]acetic acid], for which the inhibition in vivo at 0.005 % in diet in the test with KKAY mice (setting [1]) stood at 50%; in the test on KKAY mice (setting [2]), 60%. This molecule also showed an EC50 at PPARγ-RXRα heterodimer of 82 nM.

Regarding `CCC(CC)c1nn(-c2ccc(Br)cn2)cc1CCCOc1c(CC(=O)O)cccc1OC` [Example 351, (2-{3-[1-(5-bromo-2-pyridinyl)-3-(1-ethylpropyl)-1H-pyrazol-4-yl]propoxy}-3-methoxyphenyl)acetic acid], the inhibition in vivo at 0.005 % in diet is 51% in the test on KKAY mice (setting [1]) and 49% in the test with KKAY mice (setting [2]). The same molecule showed an EC50 on PPARγ-RXRα heterodimer of 20 nM.

In the case of `CCC(CC)c1nn(-c2ccc(C(F)(F)F)cn2)cc1CCCOc1c(C)cccc1CC(=O)O` [Example 213, [2-(3-{3-(1-ethylpropyl)-1-[5-(trifluoromethyl)-2-pyridyl]-1H-pyrazol-4-yl}propoxy)-3-methylphenyl]acetic acid], the values for the inhibition in vivo at 0.005 % in diet with KKAY mice (setting [1]) and in the test with KKAY mice (setting [2]) were 51% and 52%, respectively. For the same molecule, a half-maximal effect on PPARγ-RXRα heterodimer (EC50) was put at 7.8 nM.

In the case of `CCC(CC)c1nn(-c2ccc(C(F)(F)F)cn2)cc1CCCOc1c(CC(=O)O)cccc1OC` [Example 212, [2-(3-{3-(1-ethylpropyl)-1-[5-(trifluoromethyl)-2-pyridyl]-1H-pyrazol-4-yl}propoxy)-3-methoxyphenyl]acetic acid], the inhibition in vivo at 0.005 % in diet came to 52% in the test with KKAY mice (setting [1]) and 55% in the test on KKAY mice (setting [2]). Further, at PPARγ-RXRα heterodimer, the midpoint of the response, the EC50, lay at 13 nM.

At PPARγ-RXRα heterodimer, `CCOc1nn(-c2ccc(C(F)(F)F)cn2)cc1CCCOc1ccc(CCC(=O)O)c(OC(C)C)c1` [Example 116, 3-[4-(3-{3-ethoxy-1-[5-(trifluoromethyl)-2-pyridinyl]-1H-pyrazol-4-yl}propoxy)-2-isopropoxyphenyl]propanoic acid] displayed a 50% effective concentration (EC50) of 82 nM.

On PPARγ-RXRα heterodimer, `O=C(O)CCc1cc(OCCCc2cn(-c3ccc(C(F)(F)F)cn3)nc2-c2ccccc2)nn1-c1ccccc1` [Example 125, 3-[1-phenyl-3-(3-{3-phenyl-1-[5-(trifluoromethyl)-2-pyridyl]-1H-pyrazol-4-yl}propoxy)-1H-pyrazol-5-yl]propionic acid] came in with an EC50 of 26 nM.

In the case of `CC(C)c1nn(-c2ccc(C(F)(F)F)cn2)cc1CCCOc1cc(CCC(=O)O)n(-c2ccccc2)n1` [Example 24, 3-[3-(3-{3-isopropyl-1-[5-(trifluoromethyl)-2-pyridyl]-1H-pyrazol-4-yl}propoxy)-1-phenyl-1H-pyrazol-5-yl]propionic acid], at PPARγ-RXRα heterodimer, a half-maximal effect (EC50) was put at 38 nM.

On PPARγ-RXRα heterodimer, `CCCc1nn(-c2ccc(C(F)(F)F)cn2)cc1CCCOc1cc(CCC(=O)O)n(-c2ccccc2)n1` [Example 43, 3-[1-phenyl-3-(3-{3-propyl-1-[5-(trifluoromethyl)-2-pyridyl]-1H-pyrazol-4-yl}propoxy)-1H-pyrazol-5-yl]propionic acid] gave an EC50 of 53 nM.

For `CCCc1nn(-c2ccc(C(F)(F)F)cn2)cc1CCCCOc1cc(CCC(=O)O)n(-c2ccccc2)n1` [Example 58, 3-[1-phenyl-3-(4-{3-propyl-1-[5-(trifluoromethyl)-2-pyridinyl]-1H-pyrazol-4-yl}butoxy)-1H-pyrazol-5-yl]propanoic acid], the EC50 on PPARγ-RXRα heterodimer is 43 nM.

Molecule `COc1ccc(CC(=O)O)cc1OCCCc1cn(-c2ccc(C(F)(F)F)cn2)nc1C1CCCCC1` [Example 304, [3-(3-{3-cyclohexyl-1-[5-(trifluoromethyl)-2-pyridinyl]-1H-pyrazol-4-yl}propoxy)-4-methoxyphenyl]acetic acid] displayed an EC50 at PPARγ-RXRα heterodimer of 40 nM.

On to `CCOc1ccc(CC(=O)O)cc1OCCCc1cn(-c2ccc(C(F)(F)F)cn2)nc1C1CCCCC1` [Example 201, [3-(3-{3-cyclohexyl-1-[5-(trifluoromethyl)-2-pyridyl]-1H-pyrazol-4-yl}propoxy)-4-ethoxyphenyl]acetic acid], for which the midpoint of the response at PPARγ-RXRα heterodimer, the EC50, lay at 63 nM.

These data come from patent US20060148858A1, “1, 2-Azole derivatives with hypoglycemic and hypolipidemic activity” (priority 2002, published 2006).
